# Columns and labels:
# [1] = system: Beet Armyworm (Spodoptera exigua, LAPHEG); assay: Bioassays on Beet Armyworm (BAW), 128-well diet tray assay; format: in vivo; settings: Spodoptera exigua; Beet Armyworm; rating class; read-out: BAW
# How it was run: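 Percent larval mortality, averaged across eight wells, scored after five to seven days at 25° C. under 14:10 light-dark. Each well held one to five second instars feeding on diet dosed at 50 μg/cm^2 with compound from 90:10 acetone-water, solvent dried off.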
# [2] = system: Cabbage Looper (Trichoplusia ni, TRIPNI); assay: Bioassays on Cabbage Looper (CL), 128-well diet tray assay; format: in vivo; settings: Trichoplusia ni; Cabbage Looper; rating class; read-out: CL
# How it was run: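 Each of eight wells receives artificial diet treated at 50 μg/cm^2 with the test molecule, then one to five second-instar larvae. Incubation runs five to seven days at 25° C with a 14:10 light-dark cycle under vented covers. Mortality is scored per well as a percentage and averaged.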
SMILES,pest or weed control at 50 µg/cm2 [1] [%],pest or weed control at 50 µg/cm2 [2] [%]
"Nc1c(F)ccc(NC(=O)c2cc(NC(=O)[C@H]3[C@H](c4ccc(F)c(Br)c4)C3(Cl)Cl)ccc2Cl)c1F [F1713, N-(3-Amino-2,4-difluorophenyl)-5-((1R,3R)-3-(3-bromo-4-fluorophenyl)-2,2-dichlorocyclopropane-1-carboxamido)-2-chlorobenzamide]",50 to 100,50 to 100
"O=C(Nc1ccc(F)c(NC(=O)C2CCCO2)c1F)c1cc(NC(=O)[C@H]2[C@H](c3ccc(F)c(Br)c3)C2(Cl)Cl)ccc1Cl (stereo partly drawn) [F1714, N-(3-(5-((1R,3R)-3-(3-Bromo-4-fluorophenyl)-2,2-dichlorocyclopropane-1-carboxamido)-2-chlorobenzamido)-2,6-difluorophenyl)tetrahydrofuran-2-carboxamide]",50 to 100,50 to 100
"O=C(Nc1ccc(F)c(NC(=O)C(F)(F)C(F)F)c1F)c1cc(NC(=O)[C@H]2[C@H](c3ccc(F)c(Br)c3)C2(Cl)Cl)ccc1Cl [F1715, 5-((1R,3R)-3-(3-Bromo-4-fluorophenyl)-2,2-dichlorocyclopropane-1-carboxamido)-2-chloro-N-(2,4-difluoro-3-(2,2,3,3-tetrafluoropropanamido)phenyl)benzamide]",50 to 100,50 to 100
"CC(=O)Nc1c(F)ccc(NC(=O)c2cc(NC(=O)[C@H]3[C@H](c4ccc(F)c(Br)c4)C3(Cl)Cl)ccc2Cl)c1F [F1716, N-(3-Acetamido-2,4-difluorophenyl)-5-((1R,3R)-3-(3-bromo-4-fluorophenyl)-2,2-dichlorocyclopropane-1-carboxamido)-2-chlorobenzamide]",50 to 100,50 to 100
"CCC(=O)Nc1c(F)ccc(NC(=O)c2cc(NC(=O)[C@H]3[C@H](c4ccc(F)c(Br)c4)C3(Cl)Cl)ccc2Cl)c1F [F1717, 5-((1R,3R)-3-(3-Bromo-4-fluorophenyl)-2,2-dichlorocyclopropane-1-carboxamido)-2-chloro-N-(2,4-difluoro-3-propionamidophenyl)benzamide]",50 to 100,50 to 100
"O=C(CC(F)(F)F)Nc1c(F)ccc(NC(=O)c2cc(NC(=O)[C@H]3[C@H](c4ccc(F)c(Br)c4)C3(Cl)Cl)ccc2Cl)c1F [F1718, 5-((1R,3R)-3-(3-Bromo-4-fluorophenyl)-2,2-dichlorocyclopropane-1-carboxamido)-2-chloro-N-(2,4-difluoro-3-(3,3,3-trifluoropropanamido)phenyl)benzamide]",50 to 100,50 to 100
"O=C(Nc1ccc(F)c(NC(=O)C2CCCS2)c1F)c1cc(NC(=O)[C@H]2[C@H](c3ccc(F)c(C(F)(F)F)c3)C2(Cl)Cl)ccc1Cl (stereo partly drawn) [F1721, N-(3-(2-Chloro-5-((1R,3R)-2,2-dichloro-3-(4-fluoro-3-(trifluoromethyl)phenyl)cyclopropane-1-carboxamido)benzamido)-2,6-difluorophenyl)tetrahydrothiophene-2-carboxamide]",50 to 100,50 to 100
"O=C(Nc1ccc(F)c(NC(=O)C2CCCOC2)c1F)c1cc(NC(=O)[C@H]2[C@H](c3ccc(F)c(C(F)(F)F)c3)C2(Cl)Cl)ccc1Cl (stereo partly drawn) [F1722, N-(3-(2-Chloro-5-((1R,3R)-2,2-dichloro-3-(4-fluoro-3-(trifluoromethyl)phenyl)cyclopropane-1-carboxamido)benzamido)-2,6-difluorophenyl)tetrahydro-2H-pyran-3-carboxamide]",50 to 100,50 to 100
"O=C(CCl)Nc1c(F)ccc(NC(=O)c2cc(NC(=O)[C@H]3[C@H](c4ccc(F)c(C(F)(F)F)c4)C3(Cl)Cl)ccc2Cl)c1F [F1726, 2-Chloro-N-(3-(2-chloroacetamido)-2,4-difluorophenyl)-5-((1R,3R)-2,2-dichloro-3-(4-fluoro-3-(trifluoromethyl)phenyl)cyclopropane-1-carboxamido)benzamide]",50 to 100,50 to 100
"CCO[C@@H](C)C(=O)Nc1c(F)ccc(NC(=O)c2cc(NC(=O)[C@H]3[C@H](c4ccc(F)c(C(F)(F)F)c4)C3(Cl)Cl)ccc2Cl)c1F [F1731, 2-Chloro-5-((1R,3R)-2,2-dichloro-3-(4-fluoro-3-(trifluoromethyl)phenyl)cyclopropane-1-carboxamido)-N-(3-((S)-2-ethoxypropanamido)-2,4-difluorophenyl)benzamide]",50 to 100,50 to 100
"CCO[C@H](C)C(=O)Nc1c(F)ccc(NC(=O)c2cc(NC(=O)[C@H]3[C@H](c4ccc(F)c(C(F)(F)F)c4)C3(Cl)Cl)ccc2Cl)c1F [F1732, 2-Chloro-5-((1R,3R)-2,2-dichloro-3-(4-fluoro-3-(trifluoromethyl)phenyl)cyclopropane-1-carboxamido)-N-(3-((R)-2-ethoxypropanamido)-2,4-difluorophenyl)benzamide]",50 to 100,50 to 100
"CCO[C@@H](C)C(=O)Nc1c(F)ccc(NC(=O)c2cc(NC(=O)[C@H]3[C@H](c4ccc(Cl)c(Cl)c4)C3(Cl)Cl)ccc2Cl)c1F [F1733, 2-Chloro-5-((1R,3R)-2,2-dichloro-3-(3,4-dichlorophenyl)cyclopropane-1-carboxamido)-N-(3-((S)-2-ethoxypropanamido)-2,4-difluorophenyl)benzamide]",50 to 100,50 to 100
"CCO[C@H](C)C(=O)Nc1c(F)ccc(NC(=O)c2cc(NC(=O)[C@H]3[C@H](c4ccc(Cl)c(Cl)c4)C3(Cl)Cl)ccc2Cl)c1F [F1734, 2-Chloro-5-((1R,3R)-2,2-dichloro-3-(3,4-dichlorophenyl)cyclopropane-1-carboxamido)-N-(3-((R)-2-ethoxypropanamido)-2,4-difluorophenyl)benzamide]",50 to 100,50 to 100
"O=C(Nc1ccc(F)c(NC(=O)C(F)(F)C(F)(F)C(F)(F)F)c1F)c1cc(NC(=O)[C@H]2[C@H](c3ccc(F)c(Cl)c3)C2(Cl)Cl)ccc1Cl [F1741, 2-Chloro-5-((1R,3R)-2,2-dichloro-3-(3-chloro-4-fluorophenyl)cyclopropane-1-carboxamido)-N-(2,4-difluoro-3-(2,2,3,3,4,4,4-heptafluorobutanamido)phenyl)benzamide]",50 to 100,50 to 100
"CC1OC1C(=O)Nc1c(F)ccc(NC(=O)c2cc(NC(=O)[C@H]3[C@H](c4ccc(F)c(C(F)(F)F)c4)C3(Cl)Cl)ccc2Cl)c1F (stereo partly drawn) [F1748, N-(3-(2-Chloro-5-((1R,3R)-2,2-dichloro-3-(4-fluoro-3-(trifluoromethyl)phenyl)cyclopropane-1-carboxamido)benzamido)-2,6-difluorophenyl)-3-methyloxirane-2-carboxamide]",50 to 100,50 to 100
"O=C(Nc1ccc(F)cc1F)c1cc(NC(=O)[C@@H]2[C@@H](c3cc(F)c(F)c(F)c3)C2(Cl)Cl)ccc1Cl [F1749, 2-Chloro-5-((1S,3S)-2,2-dichloro-3-(3,4,5-trifluorophenyl)cyclopropane-1-carboxamido)-N-(2,4-difluorophenyl)benzamide]",50 to 100,50 to 100
"O=C(Nc1ccc(F)cc1F)c1cc(NC(=O)[C@H]2[C@H](c3ccc(F)c(F)c3)C2(Cl)Cl)ccc1Cl [F1750, 2-Chloro-5-((1R,3R)-2,2-dichloro-3-(3,4-difluorophenyl)cyclopropane-1-carboxamido)-N-(2,4-difluorophenyl)benzamide]",50 to 100,50 to 100
"O=C(Nc1ccc(F)cc1F)c1cc(NC(=O)[C@@H]2[C@@H](c3ccc(F)c(F)c3)C2(Cl)Cl)ccc1Cl [F1751, 2-Chloro-5-((1S,3S)-2,2-dichloro-3-(3,4-difluorophenyl)cyclopropane-1-carboxamido)-N-(2,4-difluorophenyl)benzamide]",50 to 100,50 to 100
"COC(=O)C(=O)Nc1c(F)ccc(NC(=O)c2cc(NC(=O)[C@H]3[C@H](c4ccc(F)c(C(F)(F)F)c4)C3(Cl)Cl)ccc2Cl)c1F [F1753, Methyl 2-((3-(2-chloro-5-((1R,3R)-2,2-dichloro-3-(4-fluoro-3-(trifluoromethyl)phenyl)cyclopropane-1-carboxamido)benzamido)-2,6-difluorophenyl)amino)-2-oxoacetate]",50 to 100,50 to 100
"CC(=O)C(=O)Nc1c(F)ccc(NC(=O)c2cc(NC(=O)[C@H]3[C@H](c4ccc(F)c(C(F)(F)F)c4)C3(Cl)Cl)ccc2Cl)c1F [F1754, 2-Chloro-5-((1R,3R)-2,2-dichloro-3-(4-fluoro-3-(trifluoromethyl)phenyl)cyclopropane-1-carboxamido)-N-(2,4-difluoro-3-(2-oxopropanamido)phenyl)benzamide]",50 to 100,50 to 100
"CCC(C#N)C(=O)Nc1c(F)ccc(NC(=O)c2cc(NC(=O)[C@H]3[C@H](c4ccc(F)c(C(F)(F)F)c4)C3(Cl)Cl)ccc2Cl)c1F (stereo partly drawn) [F1756, 2-Chloro-N-(3-(2-cyanobutanamido)-2,4-difluorophenyl)-5-((1R,3R)-2,2-dichloro-3-(4-fluoro-3-(trifluoromethyl)phenyl)cyclopropane-1-carboxamido)benzamide]",50 to 100,50 to 100
"CCOC(CC)C(=O)Nc1c(F)ccc(NC(=O)c2cc(NC(=O)[C@H]3[C@H](c4ccc(F)c(C(F)(F)F)c4)C3(Cl)Cl)ccc2Cl)c1F (stereo partly drawn) [F1757, 2-Chloro-5-((1R,3R)-2,2-dichloro-3-(4-fluoro-3-(trifluoromethyl)phenyl)cyclopropane-1-carboxamido)-N-(3-(2-ethoxybutanamido)-2,4-difluorophenyl)benzamide]",50 to 100,50 to 100
